Measured values as given in PubChem BioAssay AID248 (DTP/NCI, 2004).
Where “and” joins values, the source holds several entries; their conditions need not be identical. Identical values can stand only once. Inconclusive results and toxic doses are left out. Cut-off read from the data, not from the text of the source: active = T/C of 150% or more; inactive = T/C below 125%.

Tested on: L1210 leukemia ip in BDF1 mice, survival T/C
Test: NCI In Vivo Anticancer Drug Screen. Data for tumor model L1210 Leukemia (intraperitoneal) in B6D2F1 (BDF1) mice
Conditions: endpoint: mean survival time, higher = longer survival
Outline: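 Ratio derived from survival: compound-dosed mice over vehicle-dosed mice, all bearing a transplantable tumor.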

[1] = dose: 50.0 mg/kg/injection, schedule: Q01DX009 (ip), vehicle: Klucel (hydroxypropylcellulose) (HPC)
[2] = dose: 100.0 mg/kg/injection, schedule: Q01DX009 (ip), vehicle: Klucel (hydroxypropylcellulose) (HPC)
[3] = dose: 100.0 mg/kg/injection, schedule: Q04DX003 (ip), vehicle: Klucel (hydroxypropylcellulose) (HPC)
[4] = dose: 200.0 mg/kg/injection, schedule: Q01DX009 (ip), vehicle: Klucel (hydroxypropylcellulose) (HPC)
[5] = dose: 200.0 mg/kg/injection, schedule: Q04DX003 (ip), vehicle: Klucel (hydroxypropylcellulose) (HPC)
[6] = dose: 100.0 mg/kg/injection, schedule: Q04DX002 (ip), vehicle: saline with Tween-80
[7] = dose: 200.0 mg/kg/injection, schedule: Q04DX002 (ip), vehicle: saline with Tween-80
[8] = dose: 400.0 mg/kg/injection, schedule: Q04DX002 (ip), vehicle: saline with Tween-80
[9] = dose: 400.0 mg/kg/injection, schedule: Q01DX009 (ip), vehicle: Klucel (hydroxypropylcellulose) (HPC)
[10] = dose: 100.0 mg/kg/injection, schedule: Q04DX003 (ip), vehicle: saline
[11] = dose: 100.0 mg/kg/injection, schedule: Q04DX003 (ip), vehicle: saline with Tween-80
[12] = dose: 400.0 mg/kg/injection, schedule: Q04DX003 (ip), vehicle: Klucel (hydroxypropylcellulose) (HPC)
[13] = dose: 200.0 mg/kg/injection, schedule: Q04DX003 (ip), vehicle: saline with Tween-80
[14] = dose: 400.0 mg/kg/injection, schedule: Q04DX003 (ip), vehicle: saline with Tween-80
[15] = dose: 100.0 mg/kg/injection, schedule: Q01DX001 (ip), vehicle: saline
[16] = dose: 200.0 mg/kg/injection, schedule: Q01DX001 (ip), vehicle: saline
[17] = dose: 400.0 mg/kg/injection, schedule: Q01DX001 (ip), vehicle: saline
[18] = dose: 50.0 mg/kg/injection, schedule: Q01DX001 (ip), vehicle: saline

Measured: T/C

CN1CCN(CCSC(=O)C(O)(c2ccccc2)C2CCCC2)CC1 (stereo unspecified)
inactive: dose: 150.0 mg/kg/injection, schedule: Q01DX001 (ip), vehicle: saline 102 % of control

ClC(Cl)C(Cl)(Cl)C(Cl)(Cl)Cl
inactive: [1] 96 % of control | [2] 94 % of control | [3] 95 % of control | [4] 98 % of control | [5] 108 % of control

O=C1c2ccccc2C(=O)N1c1cc(=O)[nH]c(=O)[nH]1
inactive: dose: 25.0 mg/kg/injection, schedule: Q04DX003 (ip), vehicle: Klucel (hydroxypropylcellulose) (HPC) 111 % of control | dose: 50.0 mg/kg/injection, schedule: Q04DX003 (ip), vehicle: Klucel (hydroxypropylcellulose) (HPC) 92 % of control

O=C1OC(/C=C/c2ccccc2)=NC/1=C\c1ccc2c(c1)OCO2
inactive: [6] 92 % of control | [7] 89 % of control | [8] 92 % of control

O=C(COc1ccc(Cl)cc1Cl)NCCBr
inactive: [2] 91 % of control | [4] 92 % of control | [9] 96 % of control

O=C(C[n+]1cccc(CO)c1)c1ccc(-c2ccc(C(=O)C[n+]3cccc(CO)c3)cc2)cc1
inactive: dose: 0.05 mg/kg/injection, schedule: Q04DX003 (ip), vehicle: saline 105 % of control | dose: 0.1 mg/kg/injection, schedule: Q04DX003 (ip), vehicle: saline 100 % of control | dose: 0.2 mg/kg/injection, schedule: Q04DX003 (ip), vehicle: saline 108 % of control

NC(=O)NCCNC(N)=O
inactive: dose: 100.0 mg/kg/injection, schedule: Q01DX009 (ip), vehicle: saline 108 % of control | [10] 97 % of control | dose: 200.0 mg/kg/injection, schedule: Q01DX009 (ip), vehicle: saline 110 % of control | dose: 200.0 mg/kg/injection, schedule: Q04DX003 (ip), vehicle: saline 105 % of control | dose: 400.0 mg/kg/injection, schedule: Q01DX009 (ip), vehicle: saline 108 % of control | dose: 400.0 mg/kg/injection, schedule: Q04DX003 (ip), vehicle: saline 103 % of control

CCOC(=O)n1cnc(N)n1
inactive: [2] 104 % of control | [4] 104 % of control | [9] 107 % of control

Nc1cc(=O)[nH]c(S(=O)O)n1
inactive: [1] 100 % of control | [2] 98 % of control | [4] 98 % of control

C=CCN(N=O)C(N)=O
inactive: dose: 12.5 mg/kg/injection, schedule: Q01DX Z (ip), vehicle: methylcellulose (MC) 106 % of control | dose: 25.0 mg/kg/injection, schedule: Q01DX Z (ip), vehicle: methylcellulose (MC) 108 % of control | dose: 50.0 mg/kg/injection, schedule: Q01DX Z (ip), vehicle: methylcellulose (MC) 117 % of control

BrC1CC2CCCCC2CC1Br (stereo unspecified)
inactive: dose: 100.0 mg/kg/injection, schedule: Q01DX001 (ip), vehicle: carboxymethylcellulose (CMC) 98 % of control | dose: 200.0 mg/kg/injection, schedule: Q01DX001 (ip), vehicle: carboxymethylcellulose (CMC) 101 % of control | dose: 400.0 mg/kg/injection, schedule: Q01DX001 (ip), vehicle: carboxymethylcellulose (CMC) 101 % of control

COc1cc(OC)c(N=CN(C)C)cc1Cl
inactive: dose: 25.0 mg/kg/injection, schedule: Q01DX009 (ip), vehicle: Klucel (hydroxypropylcellulose) (HPC) 104 % of control | [1] 102 % of control | dose: 75.0 mg/kg/injection, schedule: Q01DX009 (ip), vehicle: Klucel (hydroxypropylcellulose) (HPC) 99 % of control and 105 % of control

CC(C)c1ccc(C(O)C2CC2)cc1 (stereo unspecified)
inactive: [11] 94 % of control

CSC(c1ccccc1Cl)=[N+]1CCCCC1
inactive: [3] 104 % of control | [5] 88 % of control | [12] 93 % of control

COc1cc(Cl)ccc1NC(=O)Oc1ccc2c(C)cc(=O)oc2c1
inactive: [2] 100 % of control

Nc1ccccc1SC(CC(=O)c1ccccc1)c1ccccc1 (stereo unspecified)
inactive: [6] 93 % of control and 96 % of control | [11] 91 % of control | [7] 100 % of control and 103 % of control | [13] 93 % of control and 109 % of control | [8] 98 % of control and 104 % of control | [14] 95 % of control and 91 % of control

NC(=O)C(F)(F)c1ccccc1
inactive: [15] 105 % of control | [16] 103 % of control | [17] 102 % of control

Cc1c2c(cc3c1sc1ccccc13)CCCC2=O
inactive: [15] 101 % of control | [16] 94 % of control | [17] 101 % of control

Cc1ccc(N(CCO)CCO)cc1
inactive: [18] 93 % of control | [15] 102 % of control

O=[N+]([O-])c1ccc(F)c(Cl)c1F
inactive: dose: 10.0 mg/kg/injection, schedule: Q04DX003 (ip), vehicle: Klucel (hydroxypropylcellulose) (HPC) 103 % of control | dose: 20.0 mg/kg/injection, schedule: Q04DX003 (ip), vehicle: Klucel (hydroxypropylcellulose) (HPC) 106 % of control | dose: 40.0 mg/kg/injection, schedule: Q04DX003 (ip), vehicle: Klucel (hydroxypropylcellulose) (HPC) 99 % of control

Cc1cc(N)c2ccccc2[n+]1CCCCCCCCCC[n+]1c(C)cc(N)c2ccccc21
inactive: dose: 0.75 mg/kg/injection, schedule: Q01DX009 (ip), vehicle: Klucel (hydroxypropylcellulose) (HPC) 100 % of control | dose: 1.5 mg/kg/injection, schedule: Q01DX009 (ip), vehicle: Klucel (hydroxypropylcellulose) (HPC) 109 % of control | dose: 1.5 mg/kg/injection, schedule: Q04DX003 (ip), vehicle: Klucel (hydroxypropylcellulose) (HPC) 103 % of control | dose: 3.0 mg/kg/injection, schedule: Q01DX009 (ip), vehicle: Klucel (hydroxypropylcellulose) (HPC) 119 % of control and 124 % of control | dose: 3.0 mg/kg/injection, schedule: Q04DX003 (ip), vehicle: Klucel (hydroxypropylcellulose) (HPC) 110 % of control | dose: 6.0 mg/kg/injection, schedule: Q04DX003 (ip), vehicle: Klucel (hydroxypropylcellulose) (HPC) 116 % of control | dose: 12.5 mg/kg/injection, schedule: Q04DX003 (ip), vehicle: Klucel (hydroxypropylcellulose) (HPC) 103 % of control

CN(C)C(=S)Oc1ccc(C(=O)O)cc1
inactive: dose: 100.0 mg/kg/injection, schedule: Q01DX001 (ip), vehicle: Klucel (hydroxypropylcellulose) (HPC) 86 % of control | dose: 200.0 mg/kg/injection, schedule: Q01DX001 (ip), vehicle: Klucel (hydroxypropylcellulose) (HPC) 90 % of control | dose: 400.0 mg/kg/injection, schedule: Q01DX001 (ip), vehicle: Klucel (hydroxypropylcellulose) (HPC) 88 % of control

COc1cccc(OC)c1OS(=O)(=O)c1ccc(COc2ccc([N+](=O)[O-])cc2Cl)cc1
inactive: [3] 98 % of control | [5] 90 % of control | [12] 90 % of control

CCN(CC)C(=S)SCC(=O)O
inactive: dose: 100.0 mg/kg/injection, schedule: Q04DX003 (ip), vehicle: other 101 % of control | dose: 200.0 mg/kg/injection, schedule: Q04DX003 (ip), vehicle: other 98 % of control | dose: 400.0 mg/kg/injection, schedule: Q04DX003 (ip), vehicle: other 98 % of control

N#CSC/C(Br)=C/Br
inactive: dose: 6.25 mg/kg/injection, schedule: Q01DX009 (ip), vehicle: saline with Tween-80 99 % of control | dose: 12.5 mg/kg/injection, schedule: Q01DX009 (ip), vehicle: saline with Tween-80 96 % of control | dose: 25.0 mg/kg/injection, schedule: Q01DX009 (ip), vehicle: saline with Tween-80 96 % of control

CSc1ccc(NC(=O)Nc2cccc(Cl)c2C)cc1
inactive: dose: 50.0 mg/kg/injection, schedule: Q04DX003 (ip), vehicle: saline with Tween-80 94 % of control | dose: 100.0 mg/kg/injection, schedule: Q01DX009 (ip), vehicle: saline with Tween-80 96 % of control and 101 % of control | [6] 93 % of control and 104 % of control | [11] 92 % of control | dose: 200.0 mg/kg/injection, schedule: Q01DX009 (ip), vehicle: saline with Tween-80 100 % of control and 104 % of control | [7] 93 % of control and 97 % of control | [13] 87 % of control | dose: 400.0 mg/kg/injection, schedule: Q01DX009 (ip), vehicle: saline with Tween-80 104 % of control and 106 % of control | [8] 107 % of control and 88 % of control | [14] 88 % of control

O=C1c2ccccc2C(=O)N1[N+](=O)[O-]
inactive: [18] 101 % of control | [15] 107 % of control | [16] 107 % of control | [17] 103 % of control

CC(C)=CCCC(C)CCN(C)C (stereo unspecified)
inactive: dose: 25.0 mg/kg/injection, schedule: Q04DX003 (ip), vehicle: saline 96 % of control | dose: 50.0 mg/kg/injection, schedule: Q04DX003 (ip), vehicle: saline 97 % of control | [10] 96 % of control
